In patent publication US20240010646A1, “Urea Co-Crystal of Apixaban, and Preparation Method Therefor” (CHENGDU EASTON BIOPHARMACEUTICALS CO., LTD., priority 2021, published 2024):
In brackets after ≈: the same amount, converted by molar mass. Where two headings read alike, the source gives them in different places.

How the values were obtained:
[1] = In vivo pharmacokinetic test in rat, single oral administration, plasma LC/MS/MS; set-up: species or system SD rats; conditions: for AUClast / Cl_F_obs / Cmax / MRT / T1/2 / Tmax / AUC(0-t) / half-life: corn oil suspension, 4 mL/kg
Protocol: 18 SD rats with 9 male rats and 9 female rats, weighing 220-240 g, purchased by Chengdu Ensiweier Biotechnology Co., Ltd. from Hunan SJA Laboratory Animal Co., Ltd, License: SCXK (Xiang) 2019-0004.
After the test drugs were prepared into […] uniform suspensions with corn oil, they were immediately administered orally to rats at 4 mL/kg, and 0.1 mL of blood was sampled from the jugular vein before the administration and 15 min, 30 min, 1 h, 2 h, 3 h, 4 h, 5 h, 6 h, 7 h, 8 h and 24 h after the administration, placed in EDTA-K2 tubes and centrifuged at 3000 r/min for 10 min. The plasma was separated and stored by freezing at −80° C. in refrigerator.
50 μL of plasma was taken and evenly mixed with 5 μL of working solution or blank diluent, 150 μL of the internal-standard acetonitrile-containing precipitant was added thereto, which was shaken with vortex for 2 min, and centrifuged at 12000 r/min for 10 min. 2 μL of Supernatant was taken and mixed with 200 μL of pure water: acetonitrile (1:1), and then the resultant sample was injected with a volume of 3 μL for analysis.

[2] = Equilibrium solubility test (saturated solutions, external standard method); format: physicochemical
[3] = Stability test (high temperature, light irradiation, long-term and accelerated storage); format: physicochemical
[4] = female rats, listed as The urea co-crystal A
[5] = male rats, listed as The urea co-crystal A
[6] = female rats, listed as Crystalline form N-1
[7] = female, Sprague-Dawley (SD), rat, plasma, po, 1.25 mg/kg, female rats
[8] = male, Sprague-Dawley (SD), rat, plasma, po, 1.25 mg/kg, male rats

With `COc1ccc(-n2nc(C(N)=O)c3c2C(=O)N(c2ccc(N4CCCCC4=O)cc2)CC3)cc1` [Co-crystal A] the “Increase of bioavailability compared with crystalline form N-1” value ([1]; female rats) was 21%, the “Increase of bioavailability compared with the urea co-crystal IV from HEC Pharm Co., Ltd” value ([1]; female rats) was 44.98% and the AUClast [1, 4] was 33636 ± 8113 ng·h/mL. The Cl_F_obs [1, 4] was 7.2 ± 1.9 mL/day/kg, the Cmax [1, 4] was 4653 ± 763 ng/mL and the MRT [1, 4] was 5.55 ± 0.61 h. For the same compound, the T1/2 [1, 4] was 4.49 ± 0.10 h, the Tmax [1, 4] was 1.08 ± 0.72 h and the “Increase of bioavailability compared with crystal form N-1” value ([1]; male rats) was 29.36%. For the same compound, the “Increase of bioavailability compared with the urea co-crystal IV from HEC Pharm Co., Ltd” value ([1]; male rats) was 49.94%, the AUClast [1, 5] was 25567 ± 14447 ng·h/mL and the Cl_F_obs [1, 5] was 10.8 ± 4.8 mL/day/kg. It also gave a Cmax [1, 5] of 7970 ± 4475 ng/mL, an MRT [1, 5] of 4.16 ± 0.41 h and a T1/2 [1, 5] of 5.53 ± 2.98 h. For the same compound, the Tmax [1, 5] was 1.00 ± 0.00 h, the solubility ([2]; hydrochloric acid pH 1.0 (0.1N), 25° C.) was 48.62 µg/mL and the solubility ([2]; hydrochloric acid pH 1.0 (0.1N), 37° C.) was 57.33 µg/mL. The solubility ([2]; phosphate buffer pH 6.8, 37° C.) was 42.74 µg/mL, the solubility ([2]; phosphate buffer, 25 °C, pH 6.8, aqueous buffer, thermodynamic from solid, phosphate buffer pH 6.8, 25° C., read-out: Solubility) was 37.2 µg/mL and the solubility ([2]; pure water, 25° C.) was 55.78 µg/mL. For the same compound, the solubility ([2]; pure water, 37° C.) was 67.98 µg/mL, the Purity % ([3]; 25 ± 2° C., 60 ± 5% RH, 6 months) was 99.92% and the Purity % ([3]; 25 ± 2° C., 60 ± 5% RH, Start) was 99.93%. The Purity % ([3]; 40 ± 2° C., 75 ± 5% RH, 6 months) was 99.92%, the Purity % ([3]; 40 ± 2° C., 75 ± 5% RH, Start) was 99.93% and the Purity % ([3]; High Temperature (60° C.), 1 month) was 99.92%. For the same compound, the Purity % ([3]; High Temperature (60° C.), Start) was 99.93%, the Purity % ([3]; Light Irradiation, 1 month) was 99.93% and the Purity % ([3]; Light Irradiation, Start) was 99.93%. The Crystalline form stability ([3]; all study conditions) was “good crystalline form stability”.
With `COc1ccc(-n2nc(C(N)=O)c3c2C(=O)N(c2ccc(N4CCCCC4=O)cc2)CC3)cc1` [N-1, 1-(4-methoxyphenyl)-7-oxo-6-(4-(2-oxopiperidin-1-yl)phenyl)-4,5,6,7-tetrahydr o-1H-pyrazolo[3,4-c]pyridine-3-carboxamide, reference compound] the Cl_F_obs [1, 6] was 13.4 mL/day/kg, the Tmax [1, 6] was 5.83 ± 3.75 h and the AUC(0-t) [1, 7] was 27800 ± 13000 ng·h/mL. For the same compound, the half-life [1, 7] was 6.83 h, the Cmax ([1]; female, Sprague-Dawley (SD), rat, plasma, po, 1.25 mg/kg, female rats, read-out: Cmax) was 2570 ± 999 ng/mL and the MRT ([1]; female, Sprague-Dawley (SD), rat, plasma, po, 1.25 mg/kg, female rats, read-out: MRT) was 7.37 ± 1.79 h. For the same compound, the Cl_F_obs ([1]; male rats, listed as Crystalline form N-1) was 15.4 ± 7.68 mL/day/kg, the AUC(0-t) [1, 8] was 19800 ± 14000 ng·h/mL and the half-life [1, 8] was 5.05 ± 1.43 h. It also gave a Cmax ([1]; male, Sprague-Dawley (SD), rat, plasma, po, 1.25 mg/kg, male rats, read-out: Cmax) of 4090 ± 3250 ng/mL, an MRT ([1]; male, Sprague-Dawley (SD), rat, plasma, po, 1.25 mg/kg, male rats, read-out: MRT) of 4.78 ± 0.75 h and a Tmax ([1]; male, Sprague-Dawley (SD), rat, plasma, po, 1.25 mg/kg, male rats, read-out: Tmax) of 1 ± 0.87 h. The solubility ([2]; hydrochloric acid (0.1N), 25 °C, pH 1, simulated gastric fluid, thermodynamic from solid, hydrochloric acid pH 1.0 (0.1N), 25° C., read-out: Solubility) was 31.4 µg/mL (≈ 68.4 µM), the solubility ([2]; hydrochloric acid (0.1N), 37 °C, pH 1, simulated gastric fluid, thermodynamic from solid, hydrochloric acid pH 1.0 (0.1N), 37° C., read-out: Solubility) was 38.4 µg/mL (≈ 83.6 µM) and the solubility ([2]; phosphate buffer pH 6.8, 25° C.) was 22.09 µg/mL (≈ 48.1 µM). It also gave a solubility ([2]; phosphate buffer, 37 °C, pH 6.8, aqueous buffer, thermodynamic from solid, phosphate buffer pH 6.8, 37° C., read-out: Solubility) of 29.4 µg/mL (≈ 63.9 µM), a solubility ([2]; pure water, 25 °C, water, thermodynamic from solid, pure water, 25° C., read-out: Solubility) of 36.7 µg/mL (≈ 79.8 µM) and a solubility ([2]; pure water, 37 °C, water, thermodynamic from solid, pure water, 37° C., read-out: Solubility) of 49.2 µg/mL (≈ 107 µM).
